Data set [1] has as its system SH-SY5Y. Description: Neuroprotection against amyloid beta (1 to 42)-induced toxicity in human SH-SY5Y cells assessed as increase in cell viability at 2.5 uM preincubated for 1 hr followed by amyloid beta (1 to 42) addition and measured after 24 hrs MTT assay. In kind it is functional, cell-based. In general terms: Formazan colour is commonly taken as a measure of viable cells.

Data set [2] relates to SH-SY5Y. The data set is described as follows: Cytotoxicity against human SH-SY5Y cells assessed as reduction in cell viability at 2.5 uM after 24 hrs MTT assay. It is filed as cell-based.
Data set [3] deals with SH-SY5Y. Description: Neuroprotection against Fe/LAscH(-)-induced toxicity in human SH-SY5Y cells assessed as increase in cell viability at 2.5 uM preincubated for 1 hr followed by Fe/LAscH(-) addition and measured after 24 hrs MTT assay. It is filed as functional, cell-based.
The target of another data set is Acetylcholinesterase (Electrophorus electricus, UniProt O42275). Description: Inhibition of electric eel AChE using acetylthiocholine iodide as substrate preincubated for 15 mins followed by addition of substrate measured after 5 mins.
Acetylcholinesterase, sequence (O42275 whole entry): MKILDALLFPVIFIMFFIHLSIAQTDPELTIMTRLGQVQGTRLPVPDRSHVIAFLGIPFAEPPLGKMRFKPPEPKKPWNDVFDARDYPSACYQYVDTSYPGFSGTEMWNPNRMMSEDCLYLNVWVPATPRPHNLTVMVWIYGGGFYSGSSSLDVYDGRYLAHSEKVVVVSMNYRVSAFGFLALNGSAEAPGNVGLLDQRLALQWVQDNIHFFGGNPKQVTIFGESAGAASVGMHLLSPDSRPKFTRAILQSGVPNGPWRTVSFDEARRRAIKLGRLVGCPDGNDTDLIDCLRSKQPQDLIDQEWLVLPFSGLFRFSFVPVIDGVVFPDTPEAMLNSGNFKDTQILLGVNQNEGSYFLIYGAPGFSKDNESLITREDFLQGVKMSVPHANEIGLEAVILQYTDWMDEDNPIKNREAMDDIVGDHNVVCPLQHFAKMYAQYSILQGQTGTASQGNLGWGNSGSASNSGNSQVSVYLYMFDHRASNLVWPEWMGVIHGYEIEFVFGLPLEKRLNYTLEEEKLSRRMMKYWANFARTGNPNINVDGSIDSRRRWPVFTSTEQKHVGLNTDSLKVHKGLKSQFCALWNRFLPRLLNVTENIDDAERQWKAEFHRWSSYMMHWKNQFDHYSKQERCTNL
Data set [4] in a line: Copper chelating activity assessed as inhibition of Cu2+-induced amyloid beta (1 to 42) aggregation at 80 uM measured after 24 hrs by ThT fluorescence assay relative to control.
The test system of data set [5] is SH-SY5Y. The data set is described as follows: Neuroprotection against Fe/LAscH(-)-induced toxicity in human SH-SY5Y cells assessed as increase in cell viability at 0.1 uM preincubated for 1 hr followed by Fe/LAscH(-) addition and measured after 24 hrs MTT assay. In kind it is functional, cell-based.
The test system of data set [6] is SH-SY5Y. The data set is described as follows: Cytotoxicity against human SH-SY5Y cells assessed as reduction in cell viability at 0.1 uM after 24 hrs MTT assay. It is filed as cell-based.
Data set [7] has as its system SH-SY5Y. Description: Neuroprotection against amyloid beta (1 to 42)-induced toxicity in human SH-SY5Y cells assessed as increase in cell viability at 0.1 uM preincubated for 1 hr followed by amyloid beta (1 to 42) addition and measured after 24 hrs MTT assay. In kind it is functional, cell-based.
The nature of data set [8]: Metal chelating activity assessed as compound-Cu2+ complex formation at pH 7.4.
For data set [9], the system named is SH-SY5Y. Description: Cytotoxicity against human SH-SY5Y cells assessed as reduction in cell viability at 1 uM after 24 hrs MTT assay. It is filed as cell-based.
Data set [10] has as its system SH-SY5Y. The data set is described as follows: Neuroprotection against amyloid beta (1 to 42)-induced toxicity in human SH-SY5Y cells assessed as increase in cell viability at 1 uM preincubated for 1 hr followed by amyloid beta (1 to 42) addition and measured after 24 hrs MTT assay. In kind it is functional, cell-based.
For data set [11], the system named is SH-SY5Y. Description: Neuroprotection against Fe/LAscH(-)-induced toxicity in human SH-SY5Y cells assessed as increase in cell viability at 1 uM preincubated for 1 hr followed by Fe/LAscH(-) addition and measured after 24 hrs MTT assay. It is filed as functional, cell-based.
Data set [12] addresses Amyloid-beta precursor protein (Homo sapiens) (UniProt P05067). The data set is described as follows: Inhibition of self-induced amyloid beta (1 to 42) (unknown origin) aggregation at 50 uM measured after 24 hrs by uranyl acetate staining based TEM analysis.
Data set [13] in a line: Copper chelating activity assessed as inhibition of Cu2+-induced amyloid beta (1 to 42) aggregation at 50 uM measured after 24 hrs by uranyl acetate staining based TEM analysis.
Data set [14] concerns the target Amyloid-beta precursor protein (Homo sapiens) (UniProt P05067). The data set is described as follows: Inhibition of self-induced amyloid beta (1 to 42) (unknown origin) aggregation at 40 uM measured after 24 hrs by ThT fluorescence assay relative to control.
A short description of data set [15]: Copper chelating activity assessed as inhibition of Cu2+-induced amyloid beta (1 to 42) aggregation at 40 uM measured after 24 hrs by ThT fluorescence assay relative to control.

Calls of active or inactive are those of the source. The rule behind the calls is not given here.

Usually IC50 stands for the concentration at which inhibition is half-maximal. As a reminder, the inhibition is the change of the read-out against control, counted positive when it falls. The Kd is a measure of binding affinity in units of concentration.

Amyloid-beta precursor protein (Homo sapiens), sequence (P05067 whole entry): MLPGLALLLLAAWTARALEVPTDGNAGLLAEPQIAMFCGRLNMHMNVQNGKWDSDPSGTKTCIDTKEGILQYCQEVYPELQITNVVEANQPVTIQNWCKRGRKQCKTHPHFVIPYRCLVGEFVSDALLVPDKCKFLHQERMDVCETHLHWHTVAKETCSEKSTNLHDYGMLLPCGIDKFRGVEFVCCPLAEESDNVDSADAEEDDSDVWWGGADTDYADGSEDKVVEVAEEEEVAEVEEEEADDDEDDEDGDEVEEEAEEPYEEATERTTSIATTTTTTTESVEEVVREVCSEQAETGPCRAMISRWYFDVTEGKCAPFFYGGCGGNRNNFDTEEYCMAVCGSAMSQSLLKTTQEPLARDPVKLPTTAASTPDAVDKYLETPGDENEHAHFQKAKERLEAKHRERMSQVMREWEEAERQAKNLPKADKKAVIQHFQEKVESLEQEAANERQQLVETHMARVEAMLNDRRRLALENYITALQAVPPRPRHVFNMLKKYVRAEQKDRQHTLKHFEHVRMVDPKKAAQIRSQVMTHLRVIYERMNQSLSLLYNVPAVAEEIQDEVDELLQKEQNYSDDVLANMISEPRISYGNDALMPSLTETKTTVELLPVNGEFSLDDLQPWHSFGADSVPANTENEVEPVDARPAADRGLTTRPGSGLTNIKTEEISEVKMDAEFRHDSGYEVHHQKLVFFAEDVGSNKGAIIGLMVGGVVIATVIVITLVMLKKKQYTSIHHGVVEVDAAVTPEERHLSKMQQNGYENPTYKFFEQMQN

With `O=C(NCC(O)CNc1c2c(nc3ccccc13)CCCC2)c1ccc2[nH]c(-c3ccccc3O)nc2c1` (centres undefined), the outcome with SH-SY5Y [1] and in the data set on SH-SY5Y [3] was Active. Besides, in the data set with SH-SY5Y [2], the Activity result is recorded as “Non-Toxic”. Moreover, the IC50 at Acetylcholinesterase (read-out: IC50) was 16.8 nM. Besides, the inhibition in data set [4] amounted to 59.5%.

Turning to `Oc1ccccc1-c1nc2ccccc2[nH]1`, on Acetylcholinesterase, the IC50 entry is reported as “Not Active”.

Regarding `O=C(NCCCNc1c2c(nc3cc(Cl)ccc13)CCCC2)c1ccc2[nH]c(-c3ccccc3O)nc2c1`, the outcome in the data set on SH-SY5Y [5] and in the data set with SH-SY5Y [7] was Active. The Activity result with SH-SY5Y [6] is listed as “Non-Toxic”. Further, in data set [8], the dissociation constant Kd was determined as 0.01 nM. Moreover, the IC50 on Acetylcholinesterase (read-out: IC50) came out at 23.7 nM. Further, the inhibition in data set [4] is 55.8%.

In the case of `O=C(NCC(O)CNc1c2c(nc3cc(Cl)ccc13)CCCC2)c1ccc2[nH]c(-c3ccccc3O)nc2c1` (centres undefined), the Activity entry in the data set on SH-SY5Y [9] is given as “Non-Toxic”. Also, the result in the data set with SH-SY5Y [10] and in the data set on SH-SY5Y [11] was Active. Also, on Acetylcholinesterase (read-out: IC50), the IC50 is 18.1 nM.

For the molecule `O=C(NCCCNc1c2c(nc3ccccc13)CCCC2)c1ccc2[nH]c(-c3ccccc3O)nc2c1`, the inhibition result in data set [12] and in data set [13] was “Active” throughout. Moreover, the IC50 at Acetylcholinesterase (read-out: IC50) was 30.9 nM. In addition, the inhibition in [4] was determined as 77.3%.

On to `O=C(NCCCCNc1c2c(nc3ccccc13)CCCC2)c1ccc2[nH]c(-c3ccccc3O)nc2c1`, for which the IC50 on Acetylcholinesterase (read-out: IC50) came to 208 nM. Moreover, the inhibition in data set [4] is 65.5%.

As for `O=C(NCCNc1c2c(nc3cc(Cl)ccc13)CCCC2)c1ccc2[nH]c(-c3ccccc3O)nc2c1`, the values for the inhibition in [14] and in data set [15] were 21.9% and 20.9%, respectively. Further, the Activity entry with SH-SY5Y [9] was “Non-Toxic”. The outcome in the data set with SH-SY5Y [10] was inactive. Moreover, the IC50 on Acetylcholinesterase (read-out: IC50) was determined as 6.3 nM. The result with SH-SY5Y [11] was Active.

Take `O=C(NCCCCNc1c2c(nc3cc(Cl)ccc13)CCCC2)c1ccc2[nH]c(-c3ccccc3O)nc2c1`: in the data set on SH-SY5Y [9], the Activity result is “Non-Toxic”. The outcome with SH-SY5Y [10] and in the data set with SH-SY5Y [11] was Active. For the same molecule, on Acetylcholinesterase (read-out: IC50), the 50% inhibitory concentration (IC50) stood at 142 nM.

`O=C(NCCNc1c2c(nc3ccccc13)CCCC2)c1ccc2[nH]c(-c3ccccc3O)nc2c1`: the IC50 on Acetylcholinesterase (read-out: IC50) came to 36.4 nM. Besides, the inhibition in [4] was determined as 49.4%.

The values are drawn from ChEMBL document CHEMBL4196026, “Novel Tacrine-Hydroxyphenylbenzimidazole hybrids as potential multitarget drug candidates for Alzheimer's disease” (Eur J Med Chem, 2018).
